We go through seven substances from patent publication US20120004281A1, “RNA Interference Mediated Inhibition of the Nerve Growth Factor Beta Chain (NGFB) Gene Expression Using Short Interfering Nucleic Acid (siNA)” (Merck Sharp & Dohme Corp, priority 2009, published 2012).

One data set concerns the target T1, NGF (Homo sapiens, UniProt P01138).
T1 construct: host or cells: patients (in vivo)
As to conditions: 440 patients, moderate-severe OA knee pain, 100 or 200 mcg/kg; 26% of patients given placebo; cited from earlier work.

Another data set relates to NGFβ protein. As to the kind of experiment: NGFβ ELISA (protein knock-down in Calu-1 cells). It is filed as cell-based, human. As to conditions: for Max % Protein Reduction at 3 nM: 3 nM siNA, relative to negative universal control siNA (UC3); for IC50: 200 fM to 3 nM siNA, ELISA. As to the method:
In a 96-well plate, 5,000 Calu-1cells/well were seeded in 100 uL of complete growth media and incubated overnight at 37° C. with 5% CO2. The cells were transfected with siNAs using RNAiMax (Invitrogen, Cat# 13778-150); final concentration of siNAs is 3e-09, le-09, 3e-10, le-10, 4e-11, le-11, 4e-12, le-12, 5e-13, and 2e-13 M. The amount of RNAiMax in each well is 0.3 uL. The siNAs were incubated for 24 hours. The medium was replaced with 100 uL of fresh complete growth medium. The cells were incubated for 48 hours. 80 uL of the medium from each well was collected into a separate 96-well plate. The samples were frozen immediately at −80° C. until ready the assay was ready to be performed.
ELISA was performed using NGF Emax® ImmunoAssay System (Promega, Cat # G7630) according to the manufaturer's instructions. The samples were diluted 1:2 with the blocking buffer provided in the kit. The samples absorbance was recorded at 450 nm on a SpectraMax plate reader (Molecular Devices) within 30 minutes of stopping the reaction.
Sigmaplot was used to determine IC50 values for each of the tested siRNAs using a sigmoidal dose response calculation. The maximum percentage of protein knock-down was determined by dividing the pg/mL at each treated siNA concentration by the pg/mL of the control treated cells at the same concentration of siNA. This number was then converted to a percentage to give the percent of protein remaining.
Various siNAs were also evaluated for their potential to knock-down NGFβ protein using an ELISA assay. Six siNAs were tested in an NGFβ ELISA assay across a range of concentrations of siNAs (200 fM to 3 nM) and the level of reduction of protein was determined relative to treatment of the cells with identical concentrations of the negative universal control siNA (UC3) (see Table 6).
In general terms: ELISA stands for enzyme-linked immunosorbent assay.

The test system of a further data set is NGFβ mRNA. As to the kind of experiment: NGFβ mRNA knock-down in Calu-1 cells (RNAiMax transfection, Taqman RT-PCR). In kind it is cell-based, human. As to conditions: for Primary Screen % KD (10 nM) / IC50 / Maximum % KD in DRC: human CaLu-1 cells; for Primary Screen % KD (10 nM): mean ± S.D. of four experiments; for IC50 / Maximum % KD in DRC: dose response 0.083fM to 30 nM, mean ± S.D.; for % KD in CaLu-1 Cells: human Calu-1 cells, 10 nM siNA, 24 hrs post-transfection, relative to non-targeting control, normalized to GAPDH. The procedure: Calu-1 (human; ATCC cat# HTB-54): Cells were cultured at 37° C. in the presence of 5% CO2 and grown in McCoy's 5a medium supplemented with fetal bovine serum at a final concentration of 10% and 100 μg/mL of streptomycin and 100 U/mL penicillin.
All transfections were performed using RNAiMax (Invitrogen Cat# 13778-150) as per the manufacturer's instructions.
Cells were plated in all wells of a tissue-culture treated, 96-well plate at a final count of 5,000 cells/well in […], of appropriate culture media. Cells were cultured for 24 hours after plating at 37° C. in the presence of 5% CO2.
After 24 hours, complexes containing siNA and RNAiMax were created as follows: A solution of RNAiMax diluted 33-fold in OPTI-MEM was prepared. In parallel, solutions of the siNAs for testing were prepared to a final concentration of 120 nM in OPTI-MEM. After incubation of RNAiMax/OPTI-MEM solution at room temperature for 5 min, an equal volume of the siRNA solution and the RNAiMax solution were added together for each of the siNAs.
This solution was incubated at room temperature for 20 minutes. After incubation, 20 uL of the solution was added to each of the relevant wells.
The final concentration of siNA in each well was 10 nM and the final volume of RNAiMax in each well was 0.3u1.
The time of incubation with the RNAiMax-siNA complexes was 24 hours, unless otherwise indicated. There was no change in media between the transfection and harvesting of the cells unless otherwise indicated.
Dose response curves were carried out in a similar fashion in 96-well plates, while maintaining a constant amount of RNAiMax in each transfection.
RNA was extracted from a 96-well plate using the TaqMan® Gene Expression Cells-to-CT™ Kit (Cat# 4399002) with a modified protocol. Briefly, a 60 uL (1 plate) or 110 uL (2 plates) of the Lysis Solution with DNase I was dispensed into each well of the Lysis Buffer Plate (twin.tec full skirt plate). The lysis buffer and stop plates were stored at 4° C. until the cells were washed.
The plate was spun at 1100 rpm for 5 minutes. The culture medium was aspirated and discarded from the wells of the culture plate. The lysis was performed automatically using a BioMek FX instrument and method. After the Biomek method was completed, the lysis plate was incubated for 2 min. at room temperature. The lysis plate can be stored for 2 hours at 4° C., or at −20° C. or −80° C. for two months.
Each well of the reverse transcription plate required 10 uL of 2× reverse transcriptase Buffer, luL of 20× reverse transcription enzyme and 2 uL of nuclease-free water. The reverse transcription master mix was prepared by mixing 2× reverse transcription buffer, 20× reverse transcription enzyme mix, and nuclease-free water. 13 uL of the reverse transcription master mix was dispensed into each well of the reverse transcription plate (semi-skirted). A separate reverse transcription plate was prepared for each cell plate. The plate was loaded onto a Biomek NX or Biomek FX Dual-96 and the Biomek method was run. The program is programmed to automatically added 7 uL of lysate from the cell lysis procedure described above into each well of the reverse transcription plate. The plate is sealed and spun on a centrifuge (1000 rpm for 30 seconds) to settle the contents to the bottom of the reverse transcription plate. The plate is placed in a thermocycler at 37° C. for 60 min, 95° C. for 5 min, and 4° C. until the plate is removed from the thermocycler. Upon removal, if not used immediately, the plate was frozen at −20° C.
A series of probes and primers were used to detect the various mRNA transcripts of the genes of NGFβ, BDNF and GAPDH in human cell lines. All the Taqman probes and primers for the experiments here-in described were supplied as pre-validated sets by Applied Biosystems, Inc. (see Table 3). The assays were performed on an ABI 7900 instrument, according to the manufacturer's instructions. […]
For orientation: In qPCR the cycle at which signal appears reflects the starting amount.

[invAb] = inverted abasic unit; m = 2'-O-methyl; r = 2'-OH (RNA); f = 2'-fluoro

T1 sequence (P01138 122-241): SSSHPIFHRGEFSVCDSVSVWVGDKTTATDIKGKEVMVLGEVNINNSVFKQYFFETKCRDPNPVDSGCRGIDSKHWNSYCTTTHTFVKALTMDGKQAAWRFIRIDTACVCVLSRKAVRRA

Regarding Tanezumab, the “patients with 50% decline in pain” value with NGF is on record as “approximately 75%”.
What is called IC50 is the point on the concentration scale where inhibition reaches its midpoint. A low value points to higher potency. As to “25417-DC: siNA duplex, NGFβ target site 655; sense B GGuGAAcAuuAAcAAcAGu TTB (SEQ ID NO: 59), antisense ACUGuuGuuAAuGuucAccUU (SEQ ID NO: 60) (sense GGUGAACAUUAACAACAGUTT; antisense ACUGUUGUUAAUGUUCACCUU; sense: DNA at AGT, 2'-fluoro at CU, [invAb] at 5' end, 3' end, backbone not given here; antisense: sugars from the 5' end rrrmffmffmmfmfffmffmm, backbone not given here)”, in the data set with NGFβ protein, the “Max % Protein Reduction at 3 nM” value amounted to 77% and the 50% inhibitory concentration (IC50) was 0.303 nM. For the same substance, in the data set with NGFβ mRNA, the “Primary Screen % KD (10 nM)” value amounted to 71 ± 2%, it took 71 ± 46 pM to reach half-maximal inhibition (IC50), the “Maximum % KD in DRC” value is on record as 61 ± 2% and the “% KD in CaLu-1 Cells” value is listed as 68%.
Consider “25416-DC: siNA duplex, NGFβ target site 771; sense B GuAccAcGAcucAcAccuu TTB (SEQ ID NO: 57), antisense AAGGuGuGAGucGuGGuAcUU (SEQ ID NO: 58) (sense GUACCACGACUCACACCUUTT; antisense AAGGUGUGAGUCGUGGUACUU; sense: DNA at AGT, 2'-fluoro at CU, [invAb] at 5' end, 3' end, backbone not given here; antisense: sugars from the 5' end rrrmfmfmmmffmfmmfmfmm, backbone not given here)”, for which, in the data set on NGFβ protein, the “Max % Protein Reduction at 3 nM” value turned out to be 89% and it took 0.096 nM to reach half-maximal inhibition (IC50). In addition, in the data set with NGFβ mRNA, the “Primary Screen % KD (10 nM)” value is recorded as 80 ± 3%, the IC50 turned out to be 35 ± 33 pM, the “Maximum % KD in DRC” value is 61 ± 7% and the “% KD in CaLu-1 Cells” value was 69%.
With “25422-DC: siNA duplex, NGFβ target site 171; sense B uGuccAuGuuGuucuAcAc TTB (SEQ ID NO: 69), antisense GUGuAGAAcAAcAuGGAcAUU (SEQ ID NO: 70) (sense UGUCCAUGUUGUUCUACACTT; antisense GUGUAGAACAACAUGGACAUU; sense: DNA at AGT, 2'-fluoro at CU, [invAb] at 5' end, 3' end, backbone not given here; antisense: sugars from the 5' end rrrfmmmmfmmfmfmmmfmmm, backbone not given here)”, in the data set on NGFβ protein, the “Max % Protein Reduction at 3 nM” value stood at 77% and the IC50 is 0.395 nM. Further, in the data set on NGFβ mRNA, the “Primary Screen % KD (10 nM)” value is recorded as 72 ± 11%, inhibition was half-maximal at 60 ± 45 pM (IC50), the “Maximum % KD in DRC” value was 61 ± 9% and the “% KD in CaLu-1 Cells” value was 72%.
With “25425-DC: siNA duplex, NGFβ target site 181; sense B GuucuAcAcucuGAucAcA TTB (SEQ ID NO: 75), antisense UGUGAucAGAGuGuAGAAcUU (SEQ ID NO: 76) (sense GUUCUACACUCUGAUCACATT; antisense UGUGAUCAGAGUGUAGAACUU; sense: DNA at AGT, 2'-fluoro at CU, [invAb] at 5' end, 3' end, backbone not given here; antisense: sugars from the 5' end rrrmmffmmmmfmfmmmmfmm, backbone not given here)”, in the data set on NGFβ protein, the “Max % Protein Reduction at 3 nM” value stood at 87% and the IC50 came to 0.074 nM. Besides, in the data set with NGFβ mRNA, the “Primary Screen % KD (10 nM)” value is on record as 83 ± 6%, inhibition was half-maximal at 20 ± 19 pM (IC50), the “Maximum % KD in DRC” value turned out to be 72 ± 1% and the “% KD in CaLu-1 Cells” value is 80%.
With “25424-DC: siNA duplex, NGFβ target site 176; sense B AuGuuGuucuAcAcucuGA TTB (SEQ ID NO: 73), antisense UCAGAGuGuAGAAcAAcAuUU (SEQ ID NO: 74) (sense AUGUUGUUCUACACUCUGATT; antisense UCAGAGUGUAGAACAACAUUU; sense: DNA at AGT, 2'-fluoro at CU, [invAb] at 5' end, 3' end, backbone not given here; antisense: sugars from the 5' end rrrmmmfmfmmmmfmmfmfmm, backbone not given here)”, in the data set with NGFβ protein, the “Max % Protein Reduction at 3 nM” value is reported as 85% and the IC50 was found to be 0.108 nM. Moreover, in the data set with NGFβ mRNA, the “Primary Screen % KD (10 nM)” value came out at 82 ± 9%, half-maximal inhibition (IC50) was put at 50 ± 55 pM, the “Maximum % KD in DRC” value is on record as 72 ± 5% and the “% KD in CaLu-1 Cells” value came out at 78%.
With “25413-DC: siNA duplex, NGFβ target site 153; sense B cuGAGGuGcAuAGcGuAAu TTB (SEQ ID NO: 51), antisense AUUAcGcuAuGcAccucAGUU (SEQ ID NO: 52) (sense CUGAGGUGCAUAGCGUAAUTT; antisense AUUACGCUAUGCACCUCAGUU; sense: DNA at AGT, 2'-fluoro at CU, [invAb] at 5' end, 3' end, backbone not given here; antisense: sugars from the 5' end rrrmfmffmfmfmffffmmmm, backbone not given here)”, in the data set on NGFβ protein, the “Max % Protein Reduction at 3 nM” value turned out to be 77% and half-maximal inhibition (IC50) required 0.253 nM. Also, in the data set on NGFβ mRNA, the “Primary Screen % KD (10 nM)” value amounted to 76 ± 6%, 38 ± 35 pM corresponded to half-maximal inhibition (IC50), the “Maximum % KD in DRC” value came out at 69 ± 8% and the “% KD in CaLu-1 Cells” value turned out to be 68%.
